{"source": "patent US11702402B2", "about": "“Small molecules that block proteasome-associated ubiquitin receptor RPN13 function and uses thereof” (DANA-FARBER CANCER INSTITUTE, INC., priority 2018, dated 2023)", "key": {"RPN13 [1]": {"target": "T1, RPN13 (Homo sapiens, UniProt Q16186)", "T1 sequence (Q16186 whole entry)": "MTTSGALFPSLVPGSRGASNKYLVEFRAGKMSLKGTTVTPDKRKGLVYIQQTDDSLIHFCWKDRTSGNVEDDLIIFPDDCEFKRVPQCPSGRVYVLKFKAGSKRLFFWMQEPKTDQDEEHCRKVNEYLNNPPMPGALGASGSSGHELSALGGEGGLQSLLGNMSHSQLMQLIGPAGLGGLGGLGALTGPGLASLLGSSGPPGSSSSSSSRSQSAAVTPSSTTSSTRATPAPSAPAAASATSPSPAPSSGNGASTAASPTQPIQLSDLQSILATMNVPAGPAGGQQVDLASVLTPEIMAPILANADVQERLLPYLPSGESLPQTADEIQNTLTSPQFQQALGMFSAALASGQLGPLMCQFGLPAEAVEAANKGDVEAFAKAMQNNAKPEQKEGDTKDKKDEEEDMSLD", "test": "Rpn13 immunoblot in MM.1S cells", "assay_type": "cell-based", "design": "endogenous in cells; host or cells: MM.1S; MM.1S-CRBN KO; RPMI-8226; ANBL6.BR", "conditions": "MM.1S cells; for Rpn13 levels (immunoblot): 200 nM, 400 nM, 800 nM, 4, 8, 16 hours", "experimental": "Protein lysates were loaded on SDS-PAGE and transferred to PVDF membrane, and then immunoblotted with anti-alpha tubulin and Rpn13 antibodies.\nIn FIG. 17, MM.1S cells were treated with RA190 or JQRA at 200 nM and 400 nM, respectively, for 48 hours; and treated with RA190 or JQRA at 200 nM and 800 nM, respectively, for 48 hours. Protein lysates were loaded on SDS-PAGE and transferred to PVDF membrane, and then immunoblotted with anti-alpha tubulin and Rpn13 antibodies.\nMM.1S cells, which were treated with DMSO control, bortezomib, or WL40 at indicated concentration for 3 hours; protein lysates were analyzed for different proteasome activities (CT-L, chymotrypsin-like; T-L, trypsin-like; C-L, caspase-like). FIG. 20B is a bar graph showing percent proteasome activity after normalization with DMSO control (mean±SD; n=3). Recombinant 20S proteasome was incubated with DMSO, bortezomib, or WL40 for 30 minutes, followed by assessment of the above-noted proteasome activities. FIG. 20C MM.1S cells were pretreated with exemplary proteasome inhibitor MG132 (10 μM) for 1 hour, followed by addition of WL40 (400 nM) for 8 hours. […] Total protein lysates were subjected to immunoblots for Rpn13 and α-tubulin. […] FIG. 20E ANBL6.BR cells were treated with WL40 (400 nM) or RA190 (500 nM) for 16 hours; protein lysates were subjected to immunoblot analysis using anti-Rpn13 or anti-β-actin Abs.\nCellular protein extracts were prepared using RIPA lysis buffer (50 mM Tris-HCl, 150 mM NaCl, 1% NP-40, 0.5% sodium deoxycholate, and 0.1% SDS). Protein lysates were subjected to immunoblotting using antibodies against poly ADP ribose polymerase (PARP, BD Bioscience Pharmingen, San Diego, Calif.), caspase 3, caspase 8, p53 (Santa Cruz Biotechnology), caspase 9, p-eIF2a (Abeam, Cambridge, Mass.), caspase 7, cyclin B1, CDC25C, CDCl2, p21, Rpn13, PERK, BIP, Calnexin, GFP, LC3A/B, α-tubulin (Cell Signaling, Beverly, Mass.), polyubiquitin (Enzo Life Sciences, Inc., Farmingdale, N.Y.), or β-actin (Sigma-Aldrich, St. Louis, Mo.).\nNext, it was examined whether WL40 decreases cellular Rpn13 levels in MM cells. MM.1S cells were treated with various concentrations of WL40 (20 0 nM, 400 nM, or 800 nM) for 4 hours, 8 hours, and 16 hours; protein lysates were then analyzed for Rpn13 levels using immunoblot analysis. […] Decrease in Rpn13 levels was detectable as early as 8 hours after WL40 treatment and maximally (95%) reduced at 16 hours. Rpn13 protein level reduction was not observed with RA190 treatment (FIG. 19E, lower panel). There was no change in protein levels of tubulin, used as a loading control (FIG. 19E). To further corroborate the findings, MM.1S cells were treated with WL40, and then analyzed intracellular alterations in Rpn13 using flow cytometry."}, "[2]": {"tested_on": "MM.1S Len-resistant cells", "test": "MM.1S lenalidomide-resistant cell viability", "assay_type": "cell-based, Human", "conditions": "72 hours", "description": "The experiment was repeated twice and JQRA concentration was increased (as indicated) at the second time."}, "RPN13 [3]": {"target": "T1, RPN13", "test": "Rpn13 flow cytometry in MM.1S cells", "assay_type": "cell-based", "design": "endogenous in cells; host or cells: MM.1S; MM.1S-CRBN KO; RPMI-8226; ANBL6.BR", "conditions": "WL40 (400 nM) 16 hours, versus DMSO or RA190 (500 nM)", "experimental": "FIGS. 19A-19I show the exemplary design and characterization of exemplary Rpn13 degrader WL40. […] WL40 was created by linking the Rpn13 inhibitor RA190 to the IMiD thalidomide as a ligand for the CRBN E3 ligase via a PEG linker. […] FIG. 19C is a schematic cartoon for the novel AlphaScreen assay to measure the binding activity of inhibitor with RPN13 proteins. […] FIG. 19E depicts immunoblot analysis of multiple myeloma 1S (MM.1S) cells, which were treated with WL40 or RA190 at the indicated concentrations and time periods; protein lysates were subjected to the immunoblot analysis using anti-Rpn13 or anti-tubulin Abs. FIG. 19F depicts flow cytometry analysis of MM.1S cells, which were treated with DMSO control, WL40 (400 nM), or RA190 (500 nM) for 16 hours; cells were then washed and stained with Rpn13 Ab conjugated with AlexaFluor-647, followed by the flow cytometry analysis. […] Data was quantified using FACS Diva (BD Biosciences, USA) and FlowJo (FlowJo LLC, USA). […]\nNext, it was examined whether WL40 decreases cellular Rpn13 levels in MM cells. MM.1S cells were treated with various concentrations of WL40 (20 0 nM, 400 nM, or 800 nM) for 4 hours, 8 hours, and 16 hours; protein lysates were then analyzed for Rpn13 levels using immunoblot analysis. […] To further corroborate the findings, MM.1S cells were treated with WL40, and then analyzed intracellular alterations in Rpn13 using flow cytometry."}, "RPMI-8226 cells": {"tested_on": "RPMI-8226 cells", "test": "RPMI-8226 cell viability", "assay_type": "cell-based, Human", "conditions": "p53-mutated RPMI-8226; 48 hours", "description": "(§1) The IC50 of WL40 for cell lines is shown."}, "LC3A/B": {"tested_on": "LC3A/B", "test": "Autophagy marker LC3A/B immunoblot", "assay_type": "cell-based, Human", "conditions": "ANBL6.BR or MM.1S; versus DMSO or RA190"}, "MM.1R cells": {"tested_on": "MM.1R cells", "test": "MM.1R cell viability (WST)", "assay_type": "cell-based, Human", "conditions": "MM.1R (dexamethasone-resistant), 48 hours", "description": "as §1"}}, "note": "Entries after “also recorded” stand apart in the source; their conditions may differ."}
{"smiles": "Cl.N[C@@H](Cc1ccccc1)C(=O)N1C/C(=C/c2ccc(Cl)c(Cl)c2)C(=O)/C(=C\\c2ccc(Cl)c(Cl)c2)C1", "note": "[RA190, reference compound]", "values": [{"measurement": "Rpn13 levels (immunoblot)", "setting": "RPN13 [1]", "result": "not observed"}, {"measurement": "cytotoxicity (percentage of viable cells)", "setting": "[2]", "result": "more robust MM cytotoxicity"}]}
{"smiles": "O=C1CCC(N2C(=O)c3cccc(NCCOCCOCCOCCC(=O)N[C@@H](Cc4ccccc4)C(=O)N4C/C(=C\\c5ccc(Cl)c(Cl)c5)C(=O)/C(=C/c5ccc(Cl)c(Cl)c5)C4)c3C2=O)C(=O)N1", "note": "(stereo partly drawn) [WL40]", "values": [{"measurement": "Rpn13 levels (immunoblot)", "setting": "RPN13 [1]", "result": "degrade Rpn13; also recorded: marked decrease in Rpn13 levels"}, {"measurement": "time at which decrease in Rpn13 levels is detectable", "setting": "RPN13 [1]; after WL40 treatment", "result": 8, "unit": "h"}, {"measurement": "maximal reduction of Rpn13 levels", "setting": "RPN13 [1]; at 16 hours", "result": 95, "unit": "%"}, {"measurement": "Rpn13 expression (flow cytometry)", "setting": "RPN13 [3]", "result": "significant reduction in Rpn13 expression"}, {"measurement": "cytotoxic activity (cell viability)", "setting": "RPMI-8226 cells", "result": "cytotoxic activity"}, {"measurement": "LC3A/B level / LC3 activation", "setting": "LC3A/B", "result": "significant increase in LC3A/B; also recorded: more pronounced LC3 activation"}, {"measurement": "cytotoxicity (cell viability)", "setting": "MM.1R cells", "result": "more cytotoxic than the parental Rpn13 inhibitor RA190"}]}
